Measurements: article PMC2702281, “HLA-A*0201-restricted CTL epitope of a novel osteosarcoma antigen, papillomavirus binding factor” (Journal of Translational Medicine, 2009)

Tests used:
HLA-A*0201 molecules = HLA-A*0201 molecules (Homo sapiens, UniProt P04439, D140Y/D185E/D98H/E176V/E277Q/G131W/G231S/I119V/I121R/I166T/I218V/L300P/L318F/N151K/N90K/P208A/P217A/Q86G/Q94H/R138H/R169H/T345S); test: T2 cell surface HLA class I stabilization assay; type: cell-based; conditions: for HLA-peptide binding affinity (%MFI increase ± SD): peptide 50 μg/ml, T2 cells, anti-HLA-A2 mAb BB7.2 staining, triplicate, mean ± SD
[1] = test system: PBF A2.2-specific CD8+ T cells; test: LD/MLPC followed by tetramer-based frequency analysis; type: cell-based, human
From the text: Prior to frequency analysis and cytotoxicity assays, PBMC of patients were subjected to mixed lymphocyte peptide culture under limiting dilution conditions (LD/MLPC) according to the method described by Karanikas et al. with some modifications. LD/MLPC aims to seed at most one CTL precursor cell per well and induces proliferation of the precursor cell by subsequent mixed lymphocyte peptide culture. For this purpose, the appropriate number of PBMC and CD8^+ cells per well is considered to be 1 × 10^5–2 × 10^5 [17, 24].
PBMCs were used as a source of responder cells in the initial five subjects (Patients 1 and 2 and three healthy donors) and CD8^+ cells were used in the following three patients (Patients 3–5) [see Additional file 2].
PBMC obtained from peripheral blood samples (50 ml) of Patients 1 and 2 and three healthy donors were suspended in AIM-V (Invitrogen Corp., Carlsbad, CA) supplemented with 1% human serum (HS). These cells were incubated for 60 min at room temperature with peptide PBF A2.2 (50 μg/ml). Peptide-pulsed PBMC were seeded at 2 × 10^5 cells/200 μl/well into round-bottom 96-microwell plates in AIM-V with 10%HS, IL-2 (20 U/ml; a kind gift from Takeda Chemical Industries, Ltd., Osaka Japan) and IL-7 (10 ng/ml; R&D Systems, Minneapolis, Minnesota, USA), and incubated. On day 7, half of the medium was replaced with fresh AIM-V containing IL-2, IL-7 and the same peptides. The cell cultures were maintained by adding fresh AIM-V containing IL-2. On days 14–21, they were subjected to tetramer-based frequency analysis.
PBMC obtained from Patients 3–5 were separated into CD8^+ cells and CD8^- cells using magnetic anti-CD8 microbeads (Miltenyi Biotec, Gladbach, Germany). CD8^- cells were pulsed with the PBF A2.2 peptide for 60 min. Half of the CD8^- cells were cryopreserved at -80°C for the second stimulation. CD8^+ cells (1.0–2.1 × 10^5/well) and irradiated PBF A2.2 peptide-pulsed CD8^- cells (1–5 × 10^5/well) were cocultured in 48-well cell culture plates in 500 μl of AIM-V with 10%HS, IL-2 and IL-7. On day 7, the second stimulation was performed by adding irradiated peptide-pulsed CD8^- cells to each culture well in 500 μl of AIM-V with 10%HS, IL-2 and IL-7. On days 13–23, they were subjected to tetramer-based frequency analysis.
An FITC-conjugated HLA-A*0201/HIV tetramer (here termed the control tetramer) and a PE-conjugated HLA-A*0201/PBF A2.2 tetramer (A2/PBF A2.2 tetramer) were constructed by Medical & Biological Laboratories Co., Ltd. (Tokyo, Japan). PBMCs from patients were stimulated with the PBF A2.2 peptide by using the LD/MLPC procedure as described above. From each microwell containing 200 μl of the microculture pool, 100 μl was transferred to a V-bottom microwell and washed. To the spin-down pellets, the control tetramer and A2/PBF A2.2 tetramer (10 nM in 25 μl of PBS) were added in combination and incubated for 15 min at room temperature. Then a PE-Cy5-conjugated anti-CD8 antibody (eBioscience, San Diego, California, USA) was added (dilution of 1:30 in 25 μl of PBS containing the control tetramer and A2/PBF A2.2 tetramer) and incubated for another 15 min. The cells were washed in PBS twice, fixed with 0.5% formaldehyde, and analyzed by flow cytometry using FACScan and CellQuest software (Becton Dickinson, San Jose, California, USA). CD8^+ living cells were gated and the cells labeled with the A2/PBF A2.2 tetramer were referred to as tetramer-positive cells. Tetramer-positive cells in each well are theoretically derived from a single CTL precursor, regardless of the number (percentage) of tetramer-positive cells. Accordingly, the number of tetramer-positive wells represents the number of CTL precursors. The frequency of anti-PBF A2.2 CTLs was evaluated using the following calculation: (number of tetramer-positive wells)/[(total number of tested wells) × (initial number of CD8+ cells per well)].

[2] = three tetramer-positive patients with osteosarcoma

Row | Sequence | HLA-peptide binding affinity (%MFI increase ± SD) (HLA-A*0201 molecules) | also measured
1 | FETDPDPFLL [Peptide A2.6] | 22.5 ± 9.6 %MFI increase | 
2 | FQPGQKVYV [Peptide A2.3] | 2.7 ± 9.4 %MFI increase | 
3 | KVLRSIVGI [Peptide A2.10] | 4.4 ± 9.9 %MFI increase | 
4 | MMAAMVLTSL [Peptide A2.5] | 10.5 ± 12.0 %MFI increase | 
5 | WLLEQKLQV [Peptide A2.1] | 38.8 ± 15.5 %MFI increase | 
6 | YQALPSFQI [Peptide A2.9] | 10.2 ± 8.2 %MFI increase | 

Further lines, with some results ahead:

Row | HLA-peptide binding affinity (%MFI increase ± SD) (HLA-A*0201 molecules) | Sequence | also measured
7 | 74.5 ± 6.6 %MFI increase | ALPSFQIPV [Peptide A2.2] | %MFI increase in peptide titration experiments (HLA-A*0201 molecules; HLA class I stabilization assay at indicated concentrations, Fig. 1): dose-dependent increases of %MFI; %MFI increase compared among the peptides (HLA-A*0201 molecules; HLA class I stabilization assay, ten PBF-derived peptides): highest %MFI increase among the peptides; Frequency of CTL precursors calculated as 2/5.4 × 10^6 ([1]; Patient 4, 36 wells at 1.5 × 10^5 CD8+ cells per well, tetramer analysis on day 21, Fig. 2): 3.7 × 10^-7; Patients in whom A2/PBF A2.2 tetramer-positive T cells were detected ([1]; five HLA-A*0201+ patients with PBF-positive osteosarcoma): three of the five patients; Frequencies of the PBF A2.2-specific CD8+ T cells, average ([1]; three healthy donors): 2 × 10^-7; Frequencies of the PBF A2.2-specific CD8+ T cells, range ([1]; three healthy donors): 1 × 10^-7 to 3 × 10^-7; Frequencies of the PBF A2.2-specific CD8+ T cells, average [1, 2]: 2 × 10^-6; Frequencies of the PBF A2.2-specific CD8+ T cells, range [1, 2]: 2 × 10^-7 to 5 × 10^-6; Cytotoxicity of five CTL clones (1B1, 1D7, 1E1, 1F4, 1F7) against peptide-pulsed T2 cells (T2 cells): All five CTL clones lysed PBF A2.2 peptide-pulsed T2 cells
8 | 8.2 ± 19.1 %MFI increase | FETDPDPFL [Peptide A2.7] | 
9 | 1.8 ± 9.9 %MFI increase | GLVEQHSWM [Peptide A2.4] | 
10 | -1.5 ± 2.5 %MFI increase | SMTGLPLSAL [Peptide A2.8] | 
